# “And” between values parts separate entries of the source, which are not always exact repeats. Identical values can stand only once. Like-named read-outs stand apart in the source and are kept apart here.
# What was measured:
# [1] = system: CD45RA− memory T cells; test: Phenotypic characterization of CD45RA− memory T cells in the presence of IL-15 (Table 11); assay type: cell-based, human
# [2] = system: CD45RA− memory T cells;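 note: memory T cells from a convalescent donor cultured overnight or 72 h, surface markers read by flow cytometry, fold change versus a parallel culture lacking IL15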
# Description: CD45RA− memory T cells from the convalescent donor where thawed and incubated in Tex MACs media TexMACS Medium (Miltenyi Biotec, Germany) supplemented with 5% AB serum (Sigma-Aldrich, Saint Louis, Missouri, USA) plus 50 ng/ml of IL15 o/n and for 72 hours. After that time the cells were harvested and the phenotypic assay was performed. The same culture without IL15 was run in parallel as a control.
# Cell surface staining was performed for 20 minutes at 4 degrees with the following fluorochrome conjugated antibodies titrated to their optimal concentrations: 7AAD (BD Horizon), CD45RA FITC (BD Pharmingen), CD3 viogreen (Miltenyi Biotec), CD4 PECy7 (BD Pharmingen), CD8 APC Cy7 (BD Pharmingen), CD27 APC (BD Pharmingen). For the Treg panel CD25 BV421 (BD Horizon), and CD127 PE-CF594 (BD Horizon), was used. For the activation panel HLA-DR BV 421 (BD Pharmingen), CD69 BV421 (Biolegend), CD25 BV421 (BD Horizon), was used. For the exhaustion panel PD1 AF700 (Biolegend), NKG2D BV421 (Biolegend) was used. For the cytokine panel CD103 BV421 (BD Horizon) and CCR7 PE-CF594 (BD Horizon) was used. An average of 200.000 cells was acquired. Cell acquisition was performed using a FACS Canto. The analysis was performed using FlowJo 9.9.6 (FlowJo LLC).
# [3] = IL-15 o/n vs control with no cytokine
# [4] = IL15 (3 days) 50 ng/ml vs no cytokine
# [5] = IL15 (3 days) 50 ng/ml vs no cytokine, listed as IL-15
# [6] = IL15 (o.n.) 50 ng/ml vs no cytokine
substance,measurement,setting,value
"IL15: cytokine fundamental for memory T cells that induces the activation, the proliferation and the survival of T cells","Fold increase of activation marker HLA-DR, CD45RA− CD3+ cells",[1]; IL-15 72 hours vs control with no cytokine,1.21 fold
same,"Fold time change of exhaustion marker NKG2A, CD45RA−CD3+ cells",[1]; IL-15 o/n,0.61 fold
same,"Fold time change of exhaustion marker PD-1, CD45RA−CD3+ cells",[1]; IL-15 o/n,1.43 fold
same,"Fold increase of activation marker CD25, CD45RA− CD3+ cells",[1]; [3],2.28 fold
same,"Fold increase of activation marker CD69, CD45RA− CD3+ cells",[1]; [3],3.82 fold
same,"Fold increase of activation marker HLA-DR, CD45RA− CD3+ cells",[1]; [3],1.11 fold
same,"Fold change increase, % CD45RA−",[2]; [4],1.0 fold
same,"Fold change increase, CD3+ CCR7",[2]; [4],1 fold and 1.0 fold
same,"Fold change increase, CD3+ CD25+",[2]; [4],8.5 fold
same,"Fold change increase, CD3+ CD69 BV421 high",[2]; [4],29.6 fold
same,"Fold change increase, CD3+ CD103",[2]; [4],1.2 fold
same,"Fold change increase, CD3+ HLA-DR+",[2]; [4],2.6 fold
same,"Fold change increase, CD3+ NKG2A+",[2]; [4],1.4 fold
same,"Fold change increase, CD3+ PD1 AF700",[2]; [4],8.7 fold
same,"Fold change increase, CD4+ CCR7",[2]; [4],1.0 fold
same,"Fold change increase, CD4+ CD25+",[2]; [4],8.6 fold
same,"Fold change increase, CD4+ CD69 BV421 high",[2]; [4],59.8 fold
same,"Fold change increase, CD4+ CD103",[2]; [4],1.0 fold
same,"Fold change increase, CD4+ HLA-DR+",[2]; [4],2.4 fold
same,"Fold change increase, CD4+ NKG2A+",[2]; [4],0.6 fold
same,"Fold change increase, CD4+ PD1 AF700",[2]; [4],9.1 fold
same,"Fold change increase, CD8+ CCR7",[2]; [4],1.4 fold
same,"Fold change increase, CD8+ CD25+",[2]; [4],36.4 fold
same,"Fold change increase, CD8+ CD69 BV421 high",[2]; [4],5.6 fold
same,"Fold change increase, CD8+ CD103",[2]; [4],1.4 fold
same,"Fold change increase, CD8+ HLA-DR+",[2]; [4],1.9 fold
same,"Fold change increase, CD8+ NKG2A+",[2]; [4],1.2 fold
same,"Fold change increase, CD8+ PD1 AF700",[2]; [4],6.1 fold
same,"Fold change increase, CD45RA− % CD3+",[2]; [4],1.0 fold
same,"Fold change increase, CD45RA− % CD4+",[2]; [4],1.0 fold
same,"Fold change increase, CD45RA− % CD8+",[2]; [4],1.1 fold
same,"Fold change increase, CD45RA− CD4+ CD27+ (CM)",[2]; [4],1.0 fold
same,"Fold change increase, CD45RA− CD4+ CD27− (EM)",[2]; [4],0.9 fold
same,"Fold change increase, CD45RA− CD4+ CD127lowCD25+ (Treg)",[2]; [4],2.0 fold
same,"Fold change increase, CD45RA− CD8+ CD27+ (CM)",[2]; [4],1.0 fold
same,"Fold change increase, CD45RA− CD8+ CD27− (EM)",[2]; [4],1.0 fold
same,"Fold change increase, CD3+ CCR7",[2]; [5],No modification
same,"Fold change increase, CD3+ CD25+",[2]; [5],8.6 fold
same,"Fold change increase, % CD45RA−",[2]; [6],1.0 fold
same,"Fold change increase, CD3+ CCR7",[2]; [6],1.0 fold
same,"Fold change increase, CD3+ CD25+",[2]; [6],1.5 fold
same,"Fold change increase, CD3+ CD69 BV421 high",[2]; [6],3.2 fold
same,"Fold change increase, CD3+ CD103",[2]; [6],0.7 fold
same,"Fold change increase, CD3+ HLA-DR+",[2]; [6],1.2 fold
same,"Fold change increase, CD3+ NKG2A+",[2]; [6],0.7 fold
same,"Fold change increase, CD3+ PD1 AF700",[2]; [6],0.7 fold
same,"Fold change increase, CD4+ CCR7",[2]; [6],1.0 fold
same,"Fold change increase, CD4+ CD25+",[2]; [6],1.5 fold
same,"Fold change increase, CD4+ CD69 BV421 high",[2]; [6],2.9 fold
same,"Fold change increase, CD4+ CD103",[2]; [6],0.7 fold
same,"Fold change increase, CD4+ HLA-DR+",[2]; [6],1.2 fold
same,"Fold change increase, CD4+ NKG2A+",[2]; [6],1.2 fold
same,"Fold change increase, CD4+ PD1 AF700",[2]; [6],0.8 fold
same,"Fold change increase, CD8+ CCR7",[2]; [6],1.5 fold
same,"Fold change increase, CD8+ CD25+",[2]; [6],4.4 fold
same,"Fold change increase, CD8+ CD69 BV421 high",[2]; [6],2.8 fold
same,"Fold change increase, CD8+ CD103",[2]; [6],0.9 fold
same,"Fold change increase, CD8+ HLA-DR+",[2]; [6],1.2 fold
same,"Fold change increase, CD8+ NKG2A+",[2]; [6],0.8 fold
same,"Fold change increase, CD8+ PD1 AF700",[2]; [6],1.7 fold
same,"Fold change increase, CD45RA− % CD3+",[2]; [6],1.0 fold
same,"Fold change increase, CD45RA− % CD4+",[2]; [6],1.0 fold
same,"Fold change increase, CD45RA− % CD8+",[2]; [6],0.8 fold
same,"Fold change increase, CD45RA− CD4+ CD27+ (CM)",[2]; [6],1.0 fold
same,"Fold change increase, CD45RA− CD4+ CD27− (EM)",[2]; [6],0.9 fold
same,"Fold change increase, CD45RA− CD4+ CD127lowCD25+ (Treg)",[2]; [6],1.3 fold
same,"Fold change increase, CD45RA− CD8+ CD27+ (CM)",[2]; [6],1.1 fold
same,"Fold change increase, CD45RA− CD8+ CD27− (EM)",[2]; [6],0.9 fold
same,"Fold change increase, CD3+ CCR7","[2]; IL15 (o.n.) 50 ng/ml vs no cytokine, listed as IL-15",No modification
